The numbers were not newly measured in patent US20230037437A1, “FORMULATIONS FOR USE IN THE TREATMENT OF DIFFERENT TYPES OF ADDICTIONS AND DEPENDENCE ON ADDICTIVE SUBSTANCES” (UNIBIOLABS INTERNACIONAL S.A DE C.V, priority 2019, published 2023), which cites them from elsewhere.

For series [1], the system named is cocaine abusers. To be noted: patients taking magnesium versus placebo.
In series [2] the target is dopamine transporter (DAT) (Homo sapiens, UniProt Q01959). Conditions: relative to cocaine.
dopamine transporter (DAT), sequence (Q01959 whole entry, species assumed): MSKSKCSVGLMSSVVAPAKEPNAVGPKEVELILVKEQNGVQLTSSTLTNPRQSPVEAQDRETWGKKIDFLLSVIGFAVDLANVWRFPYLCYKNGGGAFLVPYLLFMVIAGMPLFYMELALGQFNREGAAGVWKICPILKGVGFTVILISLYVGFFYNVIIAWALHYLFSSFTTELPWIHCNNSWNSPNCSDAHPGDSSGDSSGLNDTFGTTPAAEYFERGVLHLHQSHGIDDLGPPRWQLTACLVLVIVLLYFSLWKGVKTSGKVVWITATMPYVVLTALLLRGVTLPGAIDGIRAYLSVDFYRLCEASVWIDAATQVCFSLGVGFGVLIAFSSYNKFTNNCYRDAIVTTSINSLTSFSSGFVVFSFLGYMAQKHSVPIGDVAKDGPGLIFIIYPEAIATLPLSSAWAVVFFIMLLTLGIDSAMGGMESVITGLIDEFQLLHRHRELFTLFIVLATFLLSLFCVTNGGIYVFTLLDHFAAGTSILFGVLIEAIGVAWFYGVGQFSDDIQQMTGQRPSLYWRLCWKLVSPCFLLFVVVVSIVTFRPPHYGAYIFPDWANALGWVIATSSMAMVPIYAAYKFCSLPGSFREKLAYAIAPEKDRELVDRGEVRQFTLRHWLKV
The target of series [3] is IKr channel (hERG) (Homo sapiens, UniProt Q12809).
IKr channel (hERG), sequence (Q12809 whole entry): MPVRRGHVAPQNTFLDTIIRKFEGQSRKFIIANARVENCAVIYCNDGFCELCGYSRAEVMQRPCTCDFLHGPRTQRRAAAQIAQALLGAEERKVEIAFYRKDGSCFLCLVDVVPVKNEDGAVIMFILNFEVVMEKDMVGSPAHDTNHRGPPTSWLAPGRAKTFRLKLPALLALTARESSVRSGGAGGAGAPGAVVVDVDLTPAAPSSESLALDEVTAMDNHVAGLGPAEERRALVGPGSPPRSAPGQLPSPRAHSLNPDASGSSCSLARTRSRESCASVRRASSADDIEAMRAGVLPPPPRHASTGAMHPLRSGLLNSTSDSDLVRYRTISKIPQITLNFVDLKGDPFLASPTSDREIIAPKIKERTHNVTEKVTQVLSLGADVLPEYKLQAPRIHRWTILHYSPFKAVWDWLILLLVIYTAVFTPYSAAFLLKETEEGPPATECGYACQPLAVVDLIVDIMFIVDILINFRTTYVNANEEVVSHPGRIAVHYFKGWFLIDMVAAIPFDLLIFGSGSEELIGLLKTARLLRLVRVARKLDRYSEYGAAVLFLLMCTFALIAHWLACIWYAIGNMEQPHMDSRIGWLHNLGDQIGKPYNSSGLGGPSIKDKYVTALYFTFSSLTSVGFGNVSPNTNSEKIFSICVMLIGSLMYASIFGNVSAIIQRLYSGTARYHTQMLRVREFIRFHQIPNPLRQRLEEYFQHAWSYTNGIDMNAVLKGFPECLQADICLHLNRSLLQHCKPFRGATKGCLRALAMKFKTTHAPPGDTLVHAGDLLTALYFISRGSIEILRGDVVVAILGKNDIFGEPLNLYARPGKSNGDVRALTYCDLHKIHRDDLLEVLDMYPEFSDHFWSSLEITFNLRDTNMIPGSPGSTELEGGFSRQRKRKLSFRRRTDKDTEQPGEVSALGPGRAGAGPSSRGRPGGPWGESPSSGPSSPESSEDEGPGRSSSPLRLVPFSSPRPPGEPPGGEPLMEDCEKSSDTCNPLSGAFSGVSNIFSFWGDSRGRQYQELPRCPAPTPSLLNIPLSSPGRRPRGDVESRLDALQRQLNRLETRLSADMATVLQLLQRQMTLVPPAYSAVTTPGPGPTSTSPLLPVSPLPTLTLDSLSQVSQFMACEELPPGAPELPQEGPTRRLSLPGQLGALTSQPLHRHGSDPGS
The target of series [4] is serotonin transporter (Homo sapiens, UniProt P31645).
serotonin transporter, sequence (P31645 whole entry): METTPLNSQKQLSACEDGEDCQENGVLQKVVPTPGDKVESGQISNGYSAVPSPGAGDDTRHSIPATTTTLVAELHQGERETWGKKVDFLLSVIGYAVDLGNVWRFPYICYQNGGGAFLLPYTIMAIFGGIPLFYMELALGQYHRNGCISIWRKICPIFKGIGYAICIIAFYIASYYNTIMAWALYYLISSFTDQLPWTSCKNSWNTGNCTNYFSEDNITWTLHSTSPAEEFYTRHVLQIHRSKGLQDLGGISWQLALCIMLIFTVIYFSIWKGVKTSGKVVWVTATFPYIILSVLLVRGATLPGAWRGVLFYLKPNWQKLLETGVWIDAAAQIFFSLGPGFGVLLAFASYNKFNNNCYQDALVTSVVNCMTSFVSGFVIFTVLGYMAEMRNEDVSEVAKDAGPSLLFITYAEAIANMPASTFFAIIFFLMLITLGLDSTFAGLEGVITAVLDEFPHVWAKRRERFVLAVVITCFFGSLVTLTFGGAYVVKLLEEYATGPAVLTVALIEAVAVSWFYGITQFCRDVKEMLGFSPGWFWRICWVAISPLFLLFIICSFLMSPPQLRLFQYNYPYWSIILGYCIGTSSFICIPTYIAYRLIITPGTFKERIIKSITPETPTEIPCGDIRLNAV

On to `[Mg+2]` [magnesium], for which, in series [1], the “cocaine craving scores, lower than in patients taking placebo” value is reported as 78%.
Consider `Fc1ccc(C(OCCN2CCN(CCCc3ccccc3)CC2)c2ccc(F)cc2)cc1` [GBR 12909, Vanoxerine], for which, in series [2], the “binding to the target site on the dopamine transporter (DAT), stronger than cocaine” value is given as “approximately 50 times”. Further, the “IKr channel (hERG) block” value in series [3] is listed as “potent IKr channel blocker”. In addition, in series [4], the “affinity to the serotonin transporter” value is on record as “nanomolar affinity”.
